Values quoted from earlier work as cited in patent US20100144738A1, “INHIBITORS OF C-MET AND USES THEREOF” (priority 2006, published 2010).
Where a name gives a salt, the structure may show the parent alone. Read-outs that look alike come from different tables or passages of the source.

Key:
c-Met = c-Met (Homo sapiens, UniProt P08581); conditions: single dose
c-Met, sequence (P08581 25-1390): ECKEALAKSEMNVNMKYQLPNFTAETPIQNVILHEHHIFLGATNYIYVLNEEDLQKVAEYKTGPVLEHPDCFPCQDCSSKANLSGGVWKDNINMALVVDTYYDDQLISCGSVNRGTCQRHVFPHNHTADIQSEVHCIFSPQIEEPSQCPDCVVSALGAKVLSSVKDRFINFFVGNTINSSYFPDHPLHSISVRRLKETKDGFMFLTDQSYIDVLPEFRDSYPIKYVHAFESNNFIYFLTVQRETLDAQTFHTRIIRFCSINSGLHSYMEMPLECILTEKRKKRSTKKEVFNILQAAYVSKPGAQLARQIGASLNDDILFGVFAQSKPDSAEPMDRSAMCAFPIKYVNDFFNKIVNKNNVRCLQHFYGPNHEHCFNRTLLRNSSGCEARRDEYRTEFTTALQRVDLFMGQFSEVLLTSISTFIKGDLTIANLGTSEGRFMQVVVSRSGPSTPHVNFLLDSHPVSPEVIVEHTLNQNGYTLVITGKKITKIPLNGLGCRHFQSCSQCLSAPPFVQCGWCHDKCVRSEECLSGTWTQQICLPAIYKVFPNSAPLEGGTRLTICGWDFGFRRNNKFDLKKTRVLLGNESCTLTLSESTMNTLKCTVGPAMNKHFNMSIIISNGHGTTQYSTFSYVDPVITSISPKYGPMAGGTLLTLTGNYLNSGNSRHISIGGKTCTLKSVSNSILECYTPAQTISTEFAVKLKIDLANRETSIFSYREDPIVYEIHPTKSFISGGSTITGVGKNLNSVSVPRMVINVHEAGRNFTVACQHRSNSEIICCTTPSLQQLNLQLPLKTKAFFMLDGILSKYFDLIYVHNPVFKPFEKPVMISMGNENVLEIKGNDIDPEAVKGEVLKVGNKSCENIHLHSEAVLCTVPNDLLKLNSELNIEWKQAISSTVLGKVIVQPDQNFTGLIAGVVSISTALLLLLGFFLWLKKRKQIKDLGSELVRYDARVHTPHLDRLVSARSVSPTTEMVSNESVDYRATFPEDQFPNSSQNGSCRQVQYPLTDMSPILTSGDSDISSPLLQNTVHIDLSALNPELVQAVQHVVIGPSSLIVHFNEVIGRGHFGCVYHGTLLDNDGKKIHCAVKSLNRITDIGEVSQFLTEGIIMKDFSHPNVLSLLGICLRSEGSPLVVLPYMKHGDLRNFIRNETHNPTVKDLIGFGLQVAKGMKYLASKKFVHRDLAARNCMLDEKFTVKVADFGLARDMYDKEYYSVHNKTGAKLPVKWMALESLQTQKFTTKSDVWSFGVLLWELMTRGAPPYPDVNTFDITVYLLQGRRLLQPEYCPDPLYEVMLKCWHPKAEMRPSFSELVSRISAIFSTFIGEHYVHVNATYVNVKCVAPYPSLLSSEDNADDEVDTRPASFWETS

Row | Compound | sensitivity of mutations to imatinib (c-Met mutations; mutations Asp816Val/Phe/Tyr) | sensitivity of mutations to imatinib (c-Met mutations; mutations Val560Gly, Glu839Lys, Asp820Gly) | duration of inhibition of c-Met phosphorylation in tumor xenografts (c-Met) [h]
1 | Cc1ccc(NC(=O)c2ccc(CN3CCN(C)CC3)cc2)cc1Nc1nccc(-c2cccnc2)n1 [IMATINIB, imatinib mesylate] | resistant | sensitive | –
2 | Cc1[nH]c(/C=C2\C(=O)Nc3ccc(S(=O)(=O)Cc4c(Cl)cccc4Cl)cc32)c(C)c1C(=O)N1CCC[C@@H]1CN1CCCC1 [PHA-665752] | – | – | ≤ 12
